The text below walks through data of ChEMBL document CHEMBL3243927, “5,6,7,8-Tetrahydroquinolines. 5. Antiulcer and antisecretory activity of 5,6,7,8-tetrahydroquinolinethioureas and related heterocycles” (J Med Chem, 1977).

The test system of data set [1] is Rattus norvegicus. The data set is described as follows: Antisecretory activity in pylorus-ligated Sprague-Dawley rat assessed as inhibition of gastric juice secretion at 10 mg/kg administered intraduodenally after 4 hrs by potentiographic titration analysis. In kind it is functional, organism-based. Also noted: dose 10 mg/kg.
The test system of data set [2] is Rattus norvegicus. Briefly: Antiulcer activity in Sprague-Dawley rat assessed as inhibition of cold-restraint stress-induced gastric erosion at 100 mg/kg, po after 3 hrs. In kind it is functional, organism-based. The arrangement: dose 100 mg/kg. The conditions noted are these: Stomach.
The subject of data set [3] is Rattus norvegicus. Briefly: Antiulcer activity in Sprague-Dawley rat assessed as inhibition of cold-restraint stress-induced gastric erosion at 30 mg/kg, po after 3 hrs. In kind it is functional, organism-based. Also noted: dose 30 mg/kg. The conditions noted are these: Stomach.
Data set [4] deals with Rattus norvegicus. Briefly: Antisecretory activity in pylorus-ligated Sprague-Dawley rat assessed as inhibition of gastric juice secretion at 30 mg/kg administered intraduodenally after 4 hrs by potentiographic titration analysis relative to control. In kind it is functional, organism-based. Also noted: dose 30 mg/kg.
For data set [5], the system named is Rattus norvegicus. The data set is described as follows: Toxicity in po dosed Sprague-Dawley rat assessed as mortality. As to conditions: in vivo. In kind it is organism-based.

The source made the active and inactive calls. The calls are words filed in the database; no cut-off is given here.

For `CNC(=S)NC1CCCc2cc(C)cnc21` (configuration not stated), the outcome with Rattus norvegicus [1] and with Rattus norvegicus [2] was Active. Take `Cc1cnc2c(c1)C(NC(N)=S)CCC2` (configuration not stated): the result in the data set on Rattus norvegicus [2] was inactive. For the compound `CNC(=S)N1CCCc2cccnc21`, the result in the data set with Rattus norvegicus [3] and in the data set with Rattus norvegicus [4] was Active. For `CNC(=S)N1CCCCc2cccnc21`, the result with Rattus norvegicus [1] was Active. Further, in the data set with Rattus norvegicus [2], the outcome was inactive. Take `CS/C(=N/C#N)NC1CCCc2cc(C)cnc21` (configuration not stated): the outcome in the data set on Rattus norvegicus [2] was inactive. Regarding `Cc1cnc2c(c1)C(NC(=S)Nc1ccccc1)CCC2` (configuration not stated), the outcome with Rattus norvegicus [2] was inactive. Further, in the data set on Rattus norvegicus [4], the result was Active. For the compound `O=C(NC(=S)N1CCc2cccnc21)c1ccccc1`, the result in the data set with Rattus norvegicus [2] and in the data set on Rattus norvegicus [4] was inactive. For `CNC(=S)NC1CCCc2ncc(C)cc21` (configuration not stated), the result in the data set with Rattus norvegicus [2] and with Rattus norvegicus [4] was inactive. For `CN/C(=N/C(N)=O)NC1CCCc2cc(C)cnc21` (configuration not stated), the outcome in the data set on Rattus norvegicus [2] and in the data set with Rattus norvegicus [4] was inactive. On to `CCCCNC(=S)N1CCc2cccnc21`, for which the result in the data set on Rattus norvegicus [2] and in the data set on Rattus norvegicus [4] was inactive. As for `CNC(=S)N1CCCc2ncccc21`, the result in the data set with Rattus norvegicus [3] and with Rattus norvegicus [4] was Active. As to `CN/C(=N/C(N)=S)NC1CCCc2cc(C)cnc21` (configuration not stated), in the data set on Rattus norvegicus [2], the result was Active. For the same compound, the result in the data set with Rattus norvegicus [4] was inactive. For `S=C1NCc2cccnc2N1`, in that order: “inactive” and “inactive”. For `CNC(=S)N1CCc2ncc(C)cc2C1`, in that order: “Active” and “inactive”. As to `CN/C(=N/C#N)NC1CCCc2cc(C)cnc21` (configuration not stated), the result in the data set on Rattus norvegicus [2] and in the data set on Rattus norvegicus [4] was inactive. Take `Cc1cnc2c(c1)CCCC2NC(N)=S` (configuration not stated): the result with Rattus norvegicus [2] and in the data set on Rattus norvegicus [4] was Active.

Turning to `CNC(=S)N1CCc2cccnc21`, the outcome in the data set on Rattus norvegicus [3] and in the data set with Rattus norvegicus [4] was Active. Turning to `CNC(=S)NC(C)C1CCCc2cc(C)cnc21` (configuration not stated), the outcome with Rattus norvegicus [2] and in the data set with Rattus norvegicus [4] was inactive. With `NC(=S)N1CCc2cccnc21`, the result with Rattus norvegicus [1] was Active. In the data set with Rattus norvegicus [5], the Activity result was “Toxic”. For `Cc1cnc2c(c1)C(NC(=S)NC(=O)c1ccccc1)CCC2` (configuration not stated), the Activity result with Rattus norvegicus [5] was “Toxic”. Further, in the data set with Rattus norvegicus [4], the result was inactive. Regarding `NC(=S)N1CCCCc2cccnc21`, the outcome with Rattus norvegicus [2] was inactive. In addition, the outcome in the data set on Rattus norvegicus [4] was Active. In the case of `Cc1cnc2c(c1)CCCC2NC(=S)NC(=O)c1ccccc1` (configuration not stated), the result with Rattus norvegicus [2] and in the data set with Rattus norvegicus [4] was inactive.
